This is an account of results in US12344610B2, “APOL1 inhibitors and methods of use” (Maze Therapeutics, Inc., priority 2022, dated 2025).

Molecules are shown by their SMILES.

Format in all cases: cell-based
Test [1] concerns HEK293 clonal cell line overexpressing APOL1 G1. As to the kind of experiment: APOL1 G1 HEK293 cell rescue assay (Example B3). The conditions noted are these: Homo sapiens, HEK293, HEK293 clonal line overexpressing APOL1 G1; geometric mean of at least 2 runs; † = single run; ¥ = concentration at 50% rescue estimated (no sigmoidal curve). The method in brief: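 Rescue of cell death caused by APOL1 G1 overexpression was measured in a clonal HEK293 line. Compounds were tested in duplicate on one plate, and EC50s were geometric means across at least two runs on different days. Some values are estimated 50%-rescue concentrations where curve fitting failed.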

Test [2] deals with Trypanosoma brucei Lister 427 VSG221 with APOL1 G2 recombinant protein. As to the kind of experiment: APOL1 G2 trypanosome cell rescue assay (Example B5). The conditions noted are these: Trypanosoma brucei, 20 h, read-out: APOL1 G2 Trypanosome Rescue EC50, Trypanosoma brucei Lister 427 VSG221 with APOL1 G2 recombinant protein, 20 hours, CellTiter-Glo; geometric mean of at least 2 assay runs; † = single assay run. The method in brief: (§1)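 Recombinant APOL1 protein, dispensed from a 2 μg/mL stock, and 250 T. brucei per well were co-incubated with test compound (0.4% DMSO) for 20 h. Viability: CellTiter-Glo luminescence.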
Background: In ATP-based viability assays light output follows the ATP content of the culture.

The test system of test [3] is Trypanosoma brucei Lister 427 VSG221 with APOL1 G0 recombinant protein. As to the kind of experiment: APOL1 G0 trypanosome cell rescue assay (Example B5). The conditions noted are these: Trypanosoma brucei, 20 h, read-out: APOL1 G0 Trypanosome Rescue EC50, Trypanosoma brucei Lister 427 VSG221 with APOL1 G0 recombinant protein, 20 hours, CellTiter-Glo; geometric mean of at least 2 assay runs; † = single assay run. In a few lines: as §1

What is called EC50 is the concentration giving half of the maximal effect.

Regarding `CS(=O)(=O)C1CN(c2ncc(OCCN3CCC4(CC3)C(=O)Nc3ccc(Cl)cc34)cn2)C1` [Compound 302, 5-chloro-1′-(2-{[2-(3-methanesulfonylazetidin-1-yl)pyrimidin-5-yl]oxy}ethyl)-1,2-dihydrospiro[indole-3,4′-piperidin]-2-one], the EC50 is 236 nM in test [1], 142 nM in test [2] and 356 nM in test [3].

`CC(C)(O)c1ncc(OCCN2CCC3(CC2)C(=O)Nc2ccc(Cl)cc23)cn1` [Compound 305, 5-chloro-1′-(2-{[2-(2-hydroxypropan-2-yl)pyrimidin-5-yl]oxy}ethyl)-1,2-dihydrospiro[indole-3,4′-piperidin]-2-one]: the half-maximal effective concentration (EC50) is 172 nM in test [1], 80.4 nM in test [2] and 187 nM in test [3].

Turning to `CC1(O)CN(c2nccc3cc(OCCN4CCC5(CC4)C(=O)Nc4ccc(Cl)cc45)cnc23)C1` [Compound 306, 5-chloro-1′-(2-{[8-(3-hydroxy-3-methylazetidin-1-yl)-1,7-naphthyridin-3-yl]oxy}ethyl)-1,2-dihydrospiro[indole-3,4′-piperidin]-2-one], the figures for the EC50 in test [1], in test [2] and in test [3] were 245 nM, 15 nM and 37 nM, respectively.

Regarding `O=C1Nc2ccc(Cl)cc2C12CCN(CCOc1cnc3c(N4CC(O)C4)nccc3c1)CC2` [Compound 314, 5-chloro-1′-(2-{[8-(3-hydroxyazetidin-1-yl)-1,7-naphthyridin-3-yl]oxy}ethyl)-1,2-dihydrospiro[indole-3,4′-piperidin]-2-one], the EC50 is 53.2 nM in test [1], 11.5 nM in test [2] and 25.4 nM in test [3].
